In US12122848B2, “Compositions and methods for treating fibroids” (THE LUNDQUIST INSTITUTE FOR BIOMEDICAL INNOVATION AT …, priority 2020, dated 2024):
Entries after “also recorded” stand apart in the source; their conditions may differ. One block for each compound: values may come before it.

Tests used:
leiomyoma explants [1] = experiment: Preliminary experiment: leiomyoma explants implanted subcutaneously in ovariectomized CB-17 scid/beige mice; format: in vivo; settings: 8 mg/Kg daily via IP, 8 weeks
Procedure: This example also performed a preliminary experiment using freshly collected leiomyoma explants implanted subcutaneously on the flank of ovariectomized CB-17 scid/beige female mice (N=2), and treated with vehicle or TDO2 inhibitor (680C91; 8 mg/Kg daily via IP) for 8 weeks. After sacrifice, plasma was collected and analyzed for blood chemistry panel (Abaxis).

LSMC spheroids [2] = experiment: Immunoblotting of ECM and inflammation proteins in LSMC spheroids after inhibitor treatment; format: cell-based, human
Procedure: Total protein isolated from paired tissue samples and MSMC and LSMC spheroids following treatment conditions was subjected to immunoblotting. Briefly, samples were suspended in RIPA buffer containing 1 mM EDTA and EGTA (Boston BioProducts, Ashland, MA) supplemented with 1 mM PMSF and a complete protease inhibitor mixture (Roche Diagnostics, Indianapolis, IN), sonicated, and centrifuged at 4° C. for 10 min at 14,000 rpm. The concentration of protein was determined using the BCA™ Protein Assay Kit (Thermo Scientific Pierce, Rockford, IL). Equal aliquots (thirty micrograms) of total protein for each sample was denatured with SDS-PAGE sample buffer and separated by electrophoresis on a SDS polyacrylamide gel. After transferring the samples to a nitrocellulose membrane, the membrane was blocked with TBS-Tween+5% milk and probed with the following primary antibodies: IDO1 (Cell Signaling Technology, Danvers, MA), TDO2, COL3A1 (Proteintech Group, Inc, Chicago, Illinois) and COL1A1 (Fitzgerald Industries Intl, Acton, MA). The membranes were washed with TBS containing 0.1% Tween-20 wash buffer after each antibody incubation cycle. SuperSignal West Pico Chemiluminescent Substrate™ (Thermo Scientific Pierce) was used for detection, and photographic emulsion was used to identify the protein bands, which were subsequently quantified by densitometry. The membranes were also stripped and probed with glyceraldehyde 3-phosphate dehydrogenase (GAPDH) antibody (Santa Cruz Biotechnology, Santa Cruz, CA) serving as the loading control. The densities of the specific protein bands were determined using image J program (imagej.nih.gov/ij/), normalized to GAPDH or a band obtained from staining the membrane with Ponceau S. Results were expressed as means±SEM as a ratio relative to the control group designated as 1.
(§1) Isolated MSMC and LSMC were plated in 6-well (1×10^5 cells/well) or 96-well (5×10^3 cells/well) plates which were coated with 0.5% agarose gel and incubated 48 hours for spheroids formation.

leiomyoma explants [3] = experiment: CYP1B1 expression in leiomyoma explants (AhR signaling marker); format: cell-based, human; settings: fresh leiomyoma explants, 48 hours; kynurenine 100 μM, tryptophan different doses (mM), 680C91 50 μM
leiomyoma explants [4] = experiment: In vivo experiment: leiomyoma explants implanted subcutaneously in ovariectomized CB-17 scid/beige mice; settings: 10 mg/Kg daily, i.p., 8 weeks
Procedure: FIG. 7A-E. (A) Representative of the gross appearance of leiomyoma specimens (arrow) implanted subcutaneously in CB-17 SCID/Beige female mice following 8 weeks treatment of vehicle (left) or TDO2 inhibitor (right; 680C91; 10 mg/Kg daily via IP). (B) The relative explants weight between vehicle and 680C91 treated group after 8 weeks treatment (n=6). The ratio of plasma kynurenine vs tryptophan levels was shown in (C). (D) QRT-PCR analysis of COL1A1, FN1, DNMT1 and CCND1 expression in explants (n=6) implanted subcutaneously after 8 weeks treatment of vehicle or TDO2 inhibitor. (E) Paraformaldehyde-fixed paraffin-embedded xenograft explants of vehicle (a) or TDO2 inhibitor (b) stained with Masson's Trichrome reagent. […] The results are presented as mean±SEM with P values (*:p<0.05) indicated by corresponding lines.
We also performed the in vivo experiment using freshly collected leiomyoma explants implanted subcutaneously in the flank of ovariectomized CB-17 scid/beige female mice (N=6), and treated with vehicle or TDO2 inhibitor (680C91; 10 mg/Kg daily, i.p.) for 8 weeks (FIG. 7A). After sacrifice, the explants weight was determined and the collected plasma was analyzed for levels of tryptophan, kynurenine and blood chemistry panel (Abaxis).

[5] = test system: MSMC (myometrial smooth muscle cells) spheroids; experiment: Cell proliferation in MSMC spheroids, CellTiter-Glo 3D Cell Viability Assay; format: cell-based, human
Procedure: as §1
(§2) The concentrations of inhibitors used was based on earlier studies and the cell proliferation was determined using the CellTiter-Glo 3D Cell Viability Assay (Promega, Madison, WI) according to the manufacturer's protocol. The assay was performed in six replicates per condition and repeated four times using cells isolated from four different patients.

leiomyoma explants [6] = experiment: COL1A1 and COL3A1 in culture-conditioned media of leiomyoma explants; format: cell-based, human; settings: fresh leiomyoma explants, different doses, 48 hours, N=2
Procedure: FIG. 5A-F. (A) Representative images of COL1A1 and COL3A1 in culture-conditioned media of leiomyoma explants after treatment with different doses of TDO2 inhibitor, 680C91 for 48 hours (N=2). An equal volume of conditioned media was used, and a Ponceau S-stained protein band on the nitrocellulose membrane was used as a loading control. (B) The effect of DMSO (control) and E2+P4 (10^−8M each) after 48 hours of culture on the expression of IDO1 and TDO2 in LSMC spheroids (N=2). (C) Representative western blot analysis of TDO2 following transfection of LSMC spheroids with anti-miR-200c oligonucleotides for 96 hrs. […] (E-F) QRT-PCR analysis of TDO2 (E), miR-29c and miR-200c (F) in LSMC spheroids after transfection of siRNA negative control (siNC) or TDO2 siRNA oligonucleotides (siTDO2) for 96 hours (N=3). The results are presented as mean±SEM with P values (*:p<0.05) indicated by corresponding lines.
Using fresh leiomyoma explants, we confirmed that the expression of COL1A1 and COL3A1 was decreased in culture-conditioned media following treatment with different doses of TDO2 inhibitor, 680C91 (FIG. 5A).

[7] = test system: LSMC (leiomyoma smooth muscle cells) spheroids; experiment: Cell proliferation in LSMC spheroids, CellTiter-Glo 3D Cell Viability Assay; format: cell-based, human
Procedure: as §1, §2

LSMC spheroids [8] = experiment: Kynurenine treatment of LSMC spheroids, expression of AhR, IDO1, TDO2 and COL1A1; format: cell-based, human; settings: 100 μM, 72 hours, N=2
Procedure: FIG. 6A-D. (A) The relative (mean±SEM) expression of CYP1B1 in paired (N=43) myometrium (Myo) and leiomyoma (Lyo). (B) Representative images show the levels of AhR and ARNT in fresh subfractionated cytoplasmic (Cyto) and nuclear (Nu) phase from myometrium (Myo) and paired leiomyoma (Lyo) with Calpain 1 and Lamin B1 served as markers for the respective subcellular fractions (N=3). (C) Representative images of CYP1B1 in leiomyoma explants after treatment with kynurenine (100 μM), different doses of tryptophan (mM) and TDO2 inhibitor (680C91, 50 μM) for 48 hours with a Ponceau S-stained protein band on the nitrocellulose membrane used as a loading control (N=2). (D) The effect of kynurenine (KYN, 100 μM) treatment for 72 hours on the expression of AhR, IDO1, TDO2 and COL1A1 in LSMC spheroids (N=2). The results are presented as mean±SEM with P values (*:p<0.05) indicated by corresponding lines.
Using fresh leiomyoma explants we confirmed that the expression of CYP1B1 was increased by the treatment of kynurenine (Kyn) and tryptophan, while decreased following TDO2 inhibitor treatment (FIG. 6C).

[9] = Example 2, different doses, 48 h
[10] = Example 3, 48 hours, different concentrations
[11] = Example 3, various concentrations, 48 hours, n=4

effects on food consumption (leiomyoma explants [1]): no effects
expression of CYP1B1 (leiomyoma explants [3]): decreased
effects on food consumption (leiomyoma explants [4]): no effects
Structure (SMILES): Fc1ccc2c(/C=C/c3cccnc3)c[nH]c2c1 [Compound 680C91, 6-Fluoro-3-[(1E)-2-(3-pyridinyl)ethenyl]-1H-indole]
TDO2 expression (leiomyoma explants [1]): down-regulated
effects on body weight (leiomyoma explants [1]): no effects
expression of COL1A1 (leiomyoma explants [1]): down-regulated
expression of MyD88 (leiomyoma explants [1]): down-regulated
expression of TGF-β3 (leiomyoma explants [1]): down-regulated
tumor size (leiomyoma explants [1]; N=2): reduced
adverse effects on blood chemistry including liver and renal panels (leiomyoma explants [1]; plasma): no adverse effects
protein expression of COL3A1 (LSMC spheroids [2]; [9]): down-regulated dose dependently
protein expression of IKBKB (LSMC spheroids [2]; [9]): down-regulated dose dependently
protein expression of fibronectin (LSMC spheroids [2]; [9]): down-regulated dose dependently
expression of COL1A1 (LSMC spheroids [2]; [10]): significantly reduced; also recorded: significantly repressed
expression of COL3A1 (LSMC spheroids [2]; [10]): significantly reduced; also recorded: significantly repressed
effects on body weight (leiomyoma explants [4]): no effects
explants weight (leiomyoma explants [4]; N=6): lower weight
expression of CCND1 (leiomyoma explants [4]; explants, QRT-PCR): down-regulated
expression of COL1A1 (leiomyoma explants [4]; explants, QRT-PCR): down-regulated
expression of DNMT1 (leiomyoma explants [4]; explants, QRT-PCR): down-regulated
expression of FN1 (leiomyoma explants [4]; explants, QRT-PCR): down-regulated
adverse effects on blood chemistry including liver and renal panels (leiomyoma explants [4]; plasma): no adverse effects
ratio of kynurenine/tryptophan (leiomyoma explants [4]; plasma): decreased
deposition of collagens, keratin and cytoplasm, Masson's Trichrome staining (leiomyoma explants [4]; xenograft explants): less deposition
cell proliferation ([5]; Example 2): significantly suppressed
spheroids cell proliferation [5, 11]: significantly repressed
expression of COL1A1 in culture-conditioned media (leiomyoma explants [6]): decreased
expression of COL3A1 in culture-conditioned media (leiomyoma explants [6]): decreased
cell proliferation ([7]; Example 2): significantly suppressed
spheroids cell proliferation [7, 11]: significantly inhibited; also recorded: significantly repressed

expression of CYP1B1 (leiomyoma explants [3]): increased
Structure (SMILES): Nc1ccccc1C(=O)CC(N)C(=O)O (stereo not drawn) [kynurenine]
expression of AhR (LSMC spheroids [8]): increase
expression of COL1A1 (LSMC spheroids [8]): increase
expression of IDO1 (LSMC spheroids [8]): increase
expression of TDO2 (LSMC spheroids [8]): increase

expression of CYP1B1 (leiomyoma explants [3]): increased
Structure (SMILES): N[C@@H](Cc1c[nH]c2ccccc12)C(=O)O [tryptophan]
